Experimental data from BindingDB's records for patent US20230348442 (Idorsia Pharmaceuticals, 2023).

How the values were obtained:
[1] = target: Galectin-3 (Homo sapiens, UniProt P17931); test: Biological Assay
Protocol: (§1) The inhibitory activity of compounds is determined in competitive binding assays. This spectrophotometric assay measures the binding of biotinylated human Gal-3 (hGal-3) or human Gal-1 (hGal-1), respectively, to a microplate-adsorbed glycoprotein, asialofetuin (ASF) (Proc Natl Acad Sci USA. 2013 Mar. 26; 110(13):5052-7.). Alternatively, and preferably, a human Gal-1 version in which all six cysteines are substituted by serines may be used. Briefly, compounds are serially diluted in DMSO (working dilutions). ASF-coated 384 well plates are supplemented with 22.8 μL/well of biotinylated hGal-3 or hGal-1 in assay buffer (i.e. 300-1000 ng/mL biotinylated hGal-3 or hGal-1) to which 1.2 μL of compound working dilutions are added and mixed. Plates are incubated for 3 hours at 4° C., then washed with cold assay buffer (3×50 uL), incubated for 1 hour with 25 μL/well of a streptavidin-peroxidase solution (diluted in assay buffer to 80 ng/mL) at 4° C., followed by further washing steps with assay buffer (3×50 uL). Finally, 25 μL/well of ABTS substrate is added.

[2] = target: Galectin-1 (Homo sapiens, UniProt P09382); test: Biological Assay
Chain of Galectin-1 (P09382 whole entry): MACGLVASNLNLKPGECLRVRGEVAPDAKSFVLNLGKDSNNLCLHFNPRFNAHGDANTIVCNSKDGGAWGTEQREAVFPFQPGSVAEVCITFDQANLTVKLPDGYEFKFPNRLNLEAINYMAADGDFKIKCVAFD
Protocol: as §1

Chain of Galectin-3 (P17931 whole entry): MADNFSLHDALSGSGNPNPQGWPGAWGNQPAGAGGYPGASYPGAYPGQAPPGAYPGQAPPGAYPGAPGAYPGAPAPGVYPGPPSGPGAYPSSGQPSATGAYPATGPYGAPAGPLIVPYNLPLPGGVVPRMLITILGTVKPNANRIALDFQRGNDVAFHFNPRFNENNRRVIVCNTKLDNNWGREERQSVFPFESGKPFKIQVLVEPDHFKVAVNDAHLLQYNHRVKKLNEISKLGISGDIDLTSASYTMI

Row | SMILES | IC50 [1] | IC50 [2]
1 | O=C([C@@H]1O[C@H](CO)[C@H](O)[C@H](n2cc(-c3cc(F)c(F)c(F)c3)nn2)[C@H]1O)N(c1cc(Cl)cc(Cl)c1)[C@H]1CCC[C@@H]1O [US20230348442, Example 1H.1.2] | 29.4 nM | 2090 nM
2 | N#Cc1cc(Cl)cc(N(C(=O)[C@@H]2O[C@H](CO)[C@H](O)[C@H](n3cc(-c4cc(F)c(Cl)c(F)c4)nn3)[C@H]2O)[C@H]2CCC[C@@H]2O)c1 [US20230348442, Example 1H.5.4] | 19.9 nM | 
3 | CO[C@@H]1[C@@H](n2cc(-c3cc(F)c(F)c(F)c3)nn2)[C@@H](O)[C@@H](CO)O[C@H]1C(=O)N(c1cc(C)cc(Br)c1)[C@H]1CC[C@@H]1O [US20230348442, Example 2.1.12] | 111 nM | 

The next lines start with the values.

Row | IC50 [1] | IC50 [2] | SMILES
4 | 25.5 nM |  | CO[C@@H]1[C@@H](n2cc(-c3cc(F)c(Br)c(F)c3)nn2)[C@@H](O)[C@@H](CO)O[C@H]1C(=O)N(c1cc(Br)cc(C#N)c1)[C@H]1CCC[C@@H]1O [US20230348442, Example 1.6.5]
5 | 69.2 nM |  | CO[C@@H]1[C@@H](n2cc(-c3cc(F)cc(Br)c3)nn2)[C@@H](O)[C@@H](CO)O[C@H]1C(=O)N(c1cc(Br)cc(C#N)c1)[C@H]1CCC[C@@H]1O [US20230348442, Example 1.10.5]
